Data: ChEMBL document CHEMBL1122779, “Antiinflammatory agents. 3. Synthesis and pharmacological evaluation of 2-amino-3-benzoylphenylacetic acid and analogues” (J Med Chem, 1984)

How the values were obtained:
Rattus norvegicus [1] = test: Percent change in average volume of pleural fluid at a dose 4 mg/kg of indomethacin and 5-h response is evaluated by Evans blue-carrageenan induced pleural effusion assay; format: functional
Cyclooxygenase = biological target: T1, Cyclooxygenase (Bos taurus, UniProt O62664+O62698)
T1 sequence (O62664 whole entry): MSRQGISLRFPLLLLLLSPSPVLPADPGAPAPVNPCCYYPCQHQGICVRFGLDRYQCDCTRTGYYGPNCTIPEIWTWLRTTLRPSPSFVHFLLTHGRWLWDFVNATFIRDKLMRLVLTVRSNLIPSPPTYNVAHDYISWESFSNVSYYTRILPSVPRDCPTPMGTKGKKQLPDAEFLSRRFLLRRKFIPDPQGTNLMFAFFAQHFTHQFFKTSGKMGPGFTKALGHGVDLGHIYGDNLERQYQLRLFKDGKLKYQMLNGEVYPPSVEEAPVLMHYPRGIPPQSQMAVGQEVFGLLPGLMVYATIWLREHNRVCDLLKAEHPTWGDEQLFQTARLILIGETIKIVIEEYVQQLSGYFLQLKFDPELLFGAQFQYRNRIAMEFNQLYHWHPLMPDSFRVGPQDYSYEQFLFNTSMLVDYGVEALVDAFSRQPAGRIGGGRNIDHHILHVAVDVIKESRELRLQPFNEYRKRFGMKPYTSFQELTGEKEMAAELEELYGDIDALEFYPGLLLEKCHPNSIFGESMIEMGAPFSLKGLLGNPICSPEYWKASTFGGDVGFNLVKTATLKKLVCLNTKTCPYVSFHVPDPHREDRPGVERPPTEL
T1 sequence (O62698 whole entry): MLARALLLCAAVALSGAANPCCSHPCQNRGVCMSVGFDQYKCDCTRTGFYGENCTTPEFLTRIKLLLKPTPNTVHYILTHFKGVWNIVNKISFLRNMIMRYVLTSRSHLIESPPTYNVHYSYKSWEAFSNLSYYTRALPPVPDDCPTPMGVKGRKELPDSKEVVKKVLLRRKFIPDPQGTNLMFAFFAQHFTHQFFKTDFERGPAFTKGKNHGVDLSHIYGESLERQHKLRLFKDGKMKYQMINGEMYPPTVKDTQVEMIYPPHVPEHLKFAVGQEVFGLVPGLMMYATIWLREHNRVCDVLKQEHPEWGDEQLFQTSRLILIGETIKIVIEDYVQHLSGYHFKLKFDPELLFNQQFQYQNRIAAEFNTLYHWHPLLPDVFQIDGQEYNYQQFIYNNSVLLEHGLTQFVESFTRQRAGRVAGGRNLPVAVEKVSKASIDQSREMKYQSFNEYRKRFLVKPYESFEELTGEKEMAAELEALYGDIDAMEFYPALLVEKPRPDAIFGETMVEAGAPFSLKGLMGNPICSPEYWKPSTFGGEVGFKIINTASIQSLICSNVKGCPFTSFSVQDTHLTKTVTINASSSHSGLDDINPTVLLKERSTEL
Description: Inhibition of prostaglandin G/H synthase obtained from bovine seminal vesicles.

Rattus norvegicus [2] = test: Percent change in average volume of pleural fluid at a dose of 4.0 mg/kg and 5-h response by Evans blue-carrageenan induced pleural effusion assay.; format: functional
Rattus norvegicus [3] = test: Percent change in average volume of pleural fluid at a dose of 100 mg/kg and 5-h response by Evans blue-carrageenan induced pleural effusion assay.; format: functional
Mus musculus [4] = test: Oral analgesic activity was determined in mice by the acetylcholine-induced abdominal constriction assay upon ip administration of acetylcholine bromide 20 min following oral administration; format: functional; details: Abdomen
Rattus norvegicus [5] = organism: Rattus norvegicus; test: Evaluated for chronic potency in adjuvant arthritis assay; format: functional
Rattus norvegicus [6] = test: Acute gastric toxicity (single oral dose) in male fasted rats; format: organism-based, Stomach; details: in vivo
Rattus norvegicus [7] = organism: Rattus norvegicus; test: Evaluated for acute potency in pleural effusion assay; format: functional
Mus musculus [8] = test: Oral analgesic activity was determined in mice by the acetylcholine-induced abdominal constriction assay upon ip administration of acetylcholine bromide 5 hours following oral administration; format: functional; details: Abdomen

SMILES	Change (Rattus norvegicus [1])	IC50 (Cyclooxygenase)	Change (Rattus norvegicus [2])	Change (Rattus norvegicus [3])	ED50 (Mus musculus [4])	Potency (Rattus norvegicus [5])	Gastric toxicity (Rattus norvegicus [6])	Potency (Rattus norvegicus [7])	ED50 (Mus musculus [8])
COc1ccc(C(=O)c2cccc(CC(=O)[O-])c2N)cc1.[Na+]	-35%	68 µM	-10%	–	–	–	–	–	–
Cc1ccc(CC(=O)[O-])c(N)c1C(=O)c1ccccc1.[Na+]	-1%	> 1000 µM	-38%	-13%	–	–	–	–	–
Nc1c(CC(=O)[O-])cc(Br)cc1C(=O)c1ccc(Cl)cc1.[Na+]	-40%	0.6 µM	-26%	-42%	–	–	–	–	–
Nc1c(CC(=O)[O-])cc(F)cc1C(=O)c1ccc(F)cc1.[Na+]	-40%	0.2 µM	-42%	-42%	0.71 mg/kg	0.01	0.37	1.4	–
COc1cc(CC(=O)[O-])c(N)c(C(=O)c2ccc(Br)cc2)c1.[Na+]	-25%	0.9 µM	-28%	-33%	–	–	–	–	–
Nc1c(CC(=O)[O-])cccc1C(=O)c1ccc(-c2ccccc2)cc1.[Na+]	-36%	0.08 µM	-15%	-14%	–	–	–	–	–
Nc1c(CC(=O)[O-])cccc1C(=O)c1ccc(F)cc1.[Na+]	-35%	0.9 µM	0%	-36%	–	–	–	–	–
Nc1c(CC(=O)[O-])cc(Cl)cc1C(=O)c1ccc(O)cc1.[Na+]	-40%	30 µM	-3%	-21%	–	–	–	–	–
Cc1ccc(C(=O)c2cc(C)cc(CC(=O)[O-])c2N)cc1.[Na+]	-42%	30 µM	-12%	-33%	–	–	–	–	–
Nc1c(CC(=O)[O-])cccc1C(=O)c1ccccc1Cl.[Na+]	-33%	0.3 µM	-22%	-42%	–	–	–	–	–
Nc1c(CC(=O)[O-])ccc(Cl)c1C(=O)c1ccccc1.[Na+]	-35%	37 µM	-4%	-45%	–	–	–	–	–
CSc1ccc(C(=O)c2cc(C)cc(CC(=O)[O-])c2N)cc1.[Na+]	-42%	0.4 µM	-26%	-47%	–	–	–	–	–
Cc1ccc(C(=O)c2cc(F)cc(CC(=O)[O-])c2N)cc1.[Na+]	-36%	0.07 µM	-32%	-49%	–	–	–	–	–
Cc1cc(CC(=O)[O-])c(N)c(C(=O)c2ccc(Cl)cc2Cl)c1.[Na+]	-45%	1 µM	-24%	-43%	–	–	–	–	–
Cc1ccccc1C(=O)c1cccc(CC(=O)[O-])c1N.[Na+]	-25%	1 µM	-13%	-32%	–	–	–	–	–
CSc1ccc(C(=O)c2cccc(CC(=O)[O-])c2N)cc1.[Na+]	-30%	0.1 µM	-21%	–	–	–	–	–	–
Cc1ccc(C(=O)c2cccc(CC(=O)[O-])c2N)cc1.[Na+]	-39%	0.3 µM	-17%	–	–	–	–	–	–
Nc1c(CC(=O)[O-])cc(Cl)cc1C(=O)c1ccccc1.[Na+]	-35%	1 µM	-17%	–	–	–	–	–	–
Nc1c(CC(=O)[O-])cccc1C(=O)c1ccc(C(F)(F)F)cc1.[Na+]	–	1 µM	-38%	-24%	–	–	–	–	–
Nc1c(CC(=O)[O-])cc(F)cc1C(=O)c1ccccc1.[Na+]	-20%	0.2 µM	-9%	-33%	–	–	–	–	–
CSc1ccc(C(=O)c2cc(Cl)cc(CC(=O)[O-])c2N)cc1.[Na+]	-40%	0.02 µM	-43%	-43%	0.1 mg/kg	0.1	0.9	1.8	1.9 mg/kg
Cc1cc(CC(=O)[O-])c(N)c(C(=O)c2ccccc2)c1.[Na+]	-25%	11 µM	-11%	-35%	–	–	–	–	–
COc1cc(CC(=O)[O-])c(N)c(C(=O)c2ccc(Cl)cc2)c1.[Na+]	-37%	12 µM	-26%	-36%	–	–	–	–	–
Nc1c(CC(=O)[O-])cc(F)cc1C(=O)c1ccc(Cl)cc1Cl.[Na+]	-45%	0.1 µM	-41%	-46%	0.16 mg/kg	0.13	1	1.2	0.65 mg/kg
Cc1ccc(C(=O)c2ccccc2)c(N)c1CC(=O)[O-].[Na+]	-38%	3 µM	2%	-39%	–	–	–	–	–
Nc1c(CC(=O)[O-])cccc1C(=O)c1ccc(Cl)c(Cl)c1.[Na+]	-30%	50 µM	-10%	–	–	–	–	–	–
Nc1c(CC(=O)[O-])cccc1C(=O)c1cccc(Cl)c1.[Na+]	-33%	> 1000 µM	-15%	-35%	–	–	–	–	–
CSc1ccc(C(=O)c2cc(F)cc(CC(=O)[O-])c2N)cc1.[Na+]	-33%	0.008 µM	-28%	–	0.1 mg/kg	0.03	–	0.4	> 1 mg/kg
Cc1cc(CC(=O)[O-])c(N)c(C(=O)c2ccc(F)cc2)c1.[Na+]	-42%	17 µM	0%	-35%	–	–	–	–	–
Cc1ccc(C(=O)c2cccc(CC(=O)[O-])c2N)c(C)c1.[Na+]	-40%	0.1 µM	-3%	-38%	–	–	–	–	–
